# Laboratory results: US11820782B2, “Salt forms of amino pyrazine purine based selective kinase inhibitor” (FTG BIO LLC, priority 2018, dated 2023)
# pIC50: −log10 of the molar value.
# How the values were obtained:
# [1] = Microsomal stability, RLM; type: in vitro ADME; conditions: rat liver microsomes
# Procedure: (§1) All in vitro experiments like protein binding, microsomal stability, cell cytotoxicity were performed as per study protocols of respective experiments.
# [2] = Intravenous and per oral pharmacokinetics in male Balb/c mice; type: in vivo
# Procedure: The husbandry conditions were maintained as described in animal facility SOPs during the study period. Animals procured were quarantined for 7 days followed by acclimatization for 5 days. The study was carried out for two days. Male Balb/c mice of age 10-12 weeks (18-25 g) and male Sprague Dawley rats 8-10 weeks (220-280 g) were used. The food was with held for a period of 4-12 hr prior to dosing and returned to all animals 4h post dosing and water supplied ad libitum. The doses of FT1518 were as follows: Mice: 10 mg/kg intravenous (i.v) and 50 mg/kg oral (p.o); rat—5 mg/kg intravenous (i.v) and 10 mg/kg oral (p.o). The formulation used in i.v and p.o studies were 10% dimethylsulfoxide (DMSO)+30% polyethyleneglycol 400 (PEG400)+60% water and 0.5% methylcellulose (MC)+0.1% tween 80. Blood was collected at the predetermined time points in mice (cardiac puncture) and Jugular vein (rats) over a period of 24h in eppendorf tubes containing K2EDTA as anticoagulant. The plasma was isolated from the blood and stored at −80° C. until bioanalysis. Species: BALB/C mice Gender: Male Dose: IV (10 mg/kg), Single dose • PO (50 mg/kg), single dose Formulation: • IV—DMSO: PEG400:Water (10:30:60 v/v) • PO— 0.5% methylcellulose and 0.1% Tween 80 in water Sampling Time Points: • IV: 5 min, 30 min, 1 h, 2, 4, 8 and 24 h post dose • PO: 10 min, 30 min, 1 h, 2, 4, 8 and 24 h post dose. PK analysis: Phoenix software (Pharsight product). Noncompartmental Analysis (NCA) was used to estimate the PK parameters. FIG. 56 depicts a pharmacokinetic profile of FT-1518 base in mice. Table 31 summarizes PK parameters used in a pharmacokinetic profile with intravenous dose in mice and Table 32 summarizes PK parameters used in a pharmacokinetic profile with per oral dose in mice.
# [3] = test system: MDA-MB-231 (breast cancer); test: Anti-proliferative effect, MDA-MB-231; type: cell-based
# Procedure: as §1
# [4] = pH vs solubility study (RP-HPLC); type: physicochemical; conditions: listed as Free base
# Procedure: In 2 mL volume of buffers (ranging from pH 1.2 to 7.4) and purified water, compound (either free base or esylate or oxalate) was added with increments until the compound doesn't dissolve further in the medium and compound remains undissolved or excess in the solution. The samples were kept for overnight at ambient room temperature to saturate/equilibrate. The dispersions were filtered through 0.45 μm PVDF or nylon membrane filters and the filtrates were analysed using RP-HPLC for determination of solubility of compounds in various buffers and purified water.
# [5] = Hygroscopicity (dynamic vapor sorption); type: physicochemical
# Procedure: Sorption isotherms were obtained using a VTI-SA+-moisture sorption analyzer from TA instruments. The sample temperature was maintained at 25° C. by the instrument controls. The humidity was controlled by mixing the streams of dry and wet nitrogen, with a total flow rate of 200 mL/minute. The weight change of the sample as a function of % RH was constantly monitored by microbalance.
# Typically, 5 to 20 mg of the sample was weighed under ambient conditions in a tared mesh stainless steel basket. The sample was loaded and unloaded at 40% RH and 25° C. A moisture sorption isotherm was performed as outlined. The standard isotherm was performed at 25° C. at 10% RH intervals over a 0 to 90% RH range. Sample was dried at 40° C. from ambient room conditions to 0% RH.
# [6] = Microsomal stability, PHLM; type: in vitro ADME; conditions: pooled human liver microsomes
# Procedure: as §1
# [7] = Microsomal stability, MLM; type: in vitro ADME; conditions: 3 μM (n = 3), mice liver microsomes
# Procedure: as §1
# [8] = test system: U-87 (giloblastoma, epithelial); test: Anti-proliferative effect, U-87; type: cell-based
# Procedure: as §1
# Mouse plasma = test: Plasma protein binding, mouse; type: in vitro ADME
# Procedure: as §1
# [9] = Qualitative (kinetic/visual) solubility in solvents/media; type: physicochemical
# Procedure: 2 mg quantity of API was taken in glass vial and small portions of solvent was added with vortexing till the clear solution is obtained (at room temperature or heating up to 50-60° C.).
# Weighed quantity of API was taken in glass vial and small portions of solvent was added with vortexing till the clear solution is obtained (at room temperature or heating up to 50-60° C.).
# [10] = IV dose (10 mg/kg), single dose, male Balb/c mice
# [11] = PO dose (50 mg/kg), single dose, male Balb/c mice, 50 mg/kg
compound,measurement,setting,value
CCC(CC)n1cnc2c(-c3cnc(N)cn3)nc(N3CC4CCC(C3)O4)nc21 [FT-1518 base],"Invitro T1/2, RLM",[1]; 3 μM (n = 3),>60 min
same,stability in RLM,[1],"✓ FT1518, FT 1518-Esylate and FT1518-Oxalate was highly stable in PHLM and RLM"
same,clearance as % of mouse liver blood flow,"[2]; IV 10 mg/kg, mice",~30%
same,AUC0-∞,[2]; [10],7637 ± 2021 ng·h/mL
same,Cl,[2]; [10],23.3 ± 8.3 mL/min/kg
same,Bioavailability (% F),"[2]; PO dose (50 mg/kg) vs IV 10 mg/kg, male Balb/c mice",68 % F
same,AUC0-∞,[2]; [11],25801 ± 404 ng·h/mL
same,Cmax,[2]; [11],8761 ± 718 ng/mL
same,Tmax,[2]; [11],12 min
same,pIC50,[3],< 4.52
same,Solubility,"[4]; Water, overnight, ambient room temperature",120 µg/mL
same,Solubility,[4]; pH 1.2 HCl,>50250 µg/mL
same,Solubility,[4]; pH 3.0 Citrate buffer,2110 µg/mL
same,Solubility,[4]; pH 4.0 Acetate buffer,340 µg/mL
same,Solubility,[4]; pH 5.0 Acetate buffer,140 µg/mL
same,Solubility,[4]; pH 6.8 Phosphate buffer,110 µg/mL
same,Solubility,[4]; pH 7.4 Phosphate buffer,100 µg/mL
same,hygroscopicity,[5]; normal room temperature / ambient conditions,non-hygroscopic
same,hygroscopicity,[5]; sorption cycle 0 to 95% RH at 25° C.,slightly hygroscopic. As there was no
same,moisture uptake,"[5]; up to 70% RH, 25° C.",There was about <2% moisture uptake up
same,"Invitro T1/2, PHLM",[6]; 3 μM (n = 3),>60 min
same,stability in PHLM,[6],"✓ FT1518, FT 1518-Esylate and FT1518-Oxalate was highly stable in PHLM and RLM"
same,"Invitro T1/2, MLM",[7],43 min
same,pIC50,[8],< 5.00
same,"plasma protein binding, mouse plasma",Mouse plasma,"✓ FT1518, FT1518-Esylate and FT1518-Oxalate showed moderate plasma protein binding in both mouse and human plasma"
same,"% Bound, Mouse plasma",Mouse plasma; 10 μM (n = 4),91.52%
same,solubility (descriptive term),[9]; 0.11N HCl,soluble
same,Solubility,"[9]; 1,4-dioxane",>100000 µg/mL
same,solubility (descriptive term),"[9]; 1,4-dioxane",freely soluble
same,Solubility,[9]; Dimethyl sulphoxide,>100000 µg/mL
same,solubility (descriptive term),[9]; Dimethyl sulphoxide,freely soluble
same,Solubility,"[9]; N,N-dimethyl acetamide",>100000 µg/mL
same,solubility (descriptive term),"[9]; N,N-dimethyl acetamide",freely soluble
same,Solubility,[9]; N-methyl pyrrolidone,>100000 µg/mL
same,solubility (descriptive term),[9]; N-methyl pyrrolidone,freely soluble
same,Solubility,[9]; Purified water,<1000 µg/mL
same,Solubility,[9]; Tetrahydrofuran,>100000 µg/mL
same,solubility (descriptive term),[9]; Tetrahydrofuran,freely soluble
same,solubility (descriptive term),[9]; acetone,freely soluble
same,solubility (descriptive term),[9]; acetonitrile,soluble
same,Solubility,[9]; dichloromethane,>100000 µg/mL
same,solubility (descriptive term),[9]; dichloromethane,freely soluble
same,Solubility,[9]; diethyl ether,<1000 µg/mL
same,solubility (descriptive term),[9]; diethyl ether,insoluble
same,Solubility,[9]; ethanol,>100000 µg/mL
same,solubility (descriptive term),[9]; ethanol,freely soluble
same,solubility (descriptive term),[9]; ethyl acetate,soluble
same,solubility (descriptive term),[9]; isopropyl acetate,soluble
same,solubility (descriptive term),[9]; isopropyl alcohol,freely soluble
same,Solubility,[9]; methanol,>100000 µg/mL
same,solubility (descriptive term),[9]; methanol,freely soluble
same,solubility (descriptive term),[9]; methyl tertiary butyl ether,slightly soluble
same,Solubility,[9]; n-heptane,<1000 µg/mL
same,solubility (descriptive term),[9]; n-heptane,insoluble
same,Solubility,[9]; n-hexane,<1000 µg/mL
same,solubility (descriptive term),[9]; n-hexane,insoluble
same,solubility (descriptive term),"[9]; purified water, listed as FT1518",practically insoluble
same,solubility (descriptive term),"[9]; purified water, listed as FT-1518",insoluble
same,solubility (descriptive term),[9]; toluene,soluble
